Reference: ChEMBL document CHEMBL2034963, “Synthesis and pharmacological assessment of diversely substituted pyrazolo[3,4-b]quinoline, and benzo[b]pyrazolo[4,3-g][1,8]naphthyridine derivatives” (Eur J Med Chem, 2011)
The source made the active and inactive calls. No cut-off for these calls is given here.

Key:
Acetylcholinesterase [1] = target: T1, Acetylcholinesterase (Electrophorus electricus, UniProt O42275)
Description: Inhibition of electric eel AChE preincubated for 10 mins measured after 15 mins by Ellman's method

Cholinesterase = Cholinesterase (Equus caballus, UniProt P81908)
Description: Inhibition of Equus caballus BChE preincubated for 10 mins measured after 15 mins by Ellman's method

SH-SY5Y [2] = assay: Neuroprotective activity in rotenone/oligomycin-induced cell death in human SH-SY5Y cells assessed as LDH release at 10 nM pretreated for 1 hr before rotenone/oligomycin challenge measured after 24 hrs by spectrophotometric method (reference value: 13 %); type: functional
SH-SY5Y [3] = assay: Neuroprotective activity in okadaic acid-induced cell death in human SH-SY5Y cells at 1 uM after 24 hrs by MTT method; type: functional, cell-based
Acetylcholinesterase [4] = target: T1, Acetylcholinesterase; assay: Mixed type inhibition of electric eel AChE using acetylthiocholine as substrate by Lineweaver-Burk plot analysis
SH-SY5Y [5] = assay: Neuroprotective activity in rotenone/oligomycin-induced cell death in human SH-SY5Y cells assessed as LDH release at 1 uM pretreated for 1 hr before rotenone/oligomycin challenge measured after 24 hrs by spectrophotometric method (reference value: 13 %); type: functional

T1 sequence (O42275 whole entry): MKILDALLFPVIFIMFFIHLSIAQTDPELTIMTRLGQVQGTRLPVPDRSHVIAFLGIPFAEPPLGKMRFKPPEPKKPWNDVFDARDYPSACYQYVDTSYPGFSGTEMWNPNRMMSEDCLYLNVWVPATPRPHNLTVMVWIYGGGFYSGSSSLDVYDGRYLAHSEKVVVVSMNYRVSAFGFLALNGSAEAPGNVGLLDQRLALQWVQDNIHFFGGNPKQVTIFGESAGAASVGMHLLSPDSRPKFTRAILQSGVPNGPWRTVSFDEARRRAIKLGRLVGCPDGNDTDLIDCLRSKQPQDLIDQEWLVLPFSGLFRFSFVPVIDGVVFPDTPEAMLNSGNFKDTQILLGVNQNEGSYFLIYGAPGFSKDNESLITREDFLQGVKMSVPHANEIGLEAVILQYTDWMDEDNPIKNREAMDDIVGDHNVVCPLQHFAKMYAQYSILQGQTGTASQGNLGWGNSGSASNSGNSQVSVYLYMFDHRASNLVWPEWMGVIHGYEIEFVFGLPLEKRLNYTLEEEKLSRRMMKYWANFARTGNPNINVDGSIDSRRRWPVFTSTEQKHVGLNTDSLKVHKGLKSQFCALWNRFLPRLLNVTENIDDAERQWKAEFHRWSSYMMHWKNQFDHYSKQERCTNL
Sequence of Cholinesterase (P81908 whole entry): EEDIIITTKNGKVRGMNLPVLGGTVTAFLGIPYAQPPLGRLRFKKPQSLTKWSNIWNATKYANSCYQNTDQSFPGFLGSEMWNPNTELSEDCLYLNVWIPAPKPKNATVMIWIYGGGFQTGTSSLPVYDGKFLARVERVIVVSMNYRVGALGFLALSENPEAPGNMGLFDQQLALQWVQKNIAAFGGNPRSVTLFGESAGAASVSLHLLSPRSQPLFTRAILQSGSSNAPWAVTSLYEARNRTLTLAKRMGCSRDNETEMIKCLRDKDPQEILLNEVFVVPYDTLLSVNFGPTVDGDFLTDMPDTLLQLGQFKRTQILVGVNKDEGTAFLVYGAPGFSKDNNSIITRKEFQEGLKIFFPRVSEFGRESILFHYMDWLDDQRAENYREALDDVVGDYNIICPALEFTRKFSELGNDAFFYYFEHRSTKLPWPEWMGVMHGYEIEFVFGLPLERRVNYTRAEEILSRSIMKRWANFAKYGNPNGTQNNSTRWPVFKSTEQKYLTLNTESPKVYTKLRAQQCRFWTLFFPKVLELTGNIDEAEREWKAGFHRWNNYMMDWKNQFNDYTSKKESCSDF

| Structure (SMILES) | IC50 (Acetylcholinesterase [1]) [µM] | IC50 (Cholinesterase) [µM] | Activity (SH-SY5Y [2]) [%] | Activity (SH-SY5Y [3]) | Ki (Acetylcholinesterase [4]) [µM] | Activity (SH-SY5Y [5]) [%] |
| --- | --- | --- | --- | --- | --- | --- |
| Cn1nc2nc3c(c(N)c2c1C(N)=O)CCCC3 | 0.6 | 5.4 |  |  |  |  |
| COc1ccc2[nH]cc(CCNC(C)=O)c2c1 [MELATONIN] |  |  | 48 |  |  |  |
| CC(=O)Nc1nn(C)c2nc3nc4c(c(N)c3c(-c3ccccc3)c12)CCCC4 | 0.23 | 9 |  |  |  |  |
| Cn1nc2nc3c(c(N)c2c1C#N)CCCC3 | 0.57 | 100 |  |  |  |  |
| Cn1nc(C#N)c2c(N)c3c(nc21)CCCC3 | 1.7 | 6.3 |  |  |  |  |
| CC(=O)Nc1nn(C)c2nc3nc4c(c(N)c3cc12)CCCC4 | 0.069 | 6.3 |  | inactive | 0.155 | 48 |
| Cn1nc(C(N)=O)c2c(NCCCCCCOc3ccccc3)c3c(nc21)CCCC3 | 9.3 | > 100 |  |  |  |  |
